From US20200080053A1, “USE OF PEPTIDE COMPOUNDS FOR PROMOTING SURVIVAL, GROWTH AND CELL DIFFERENTIATION” (Axoltis Pharma, priority 2016, published 2020)
Square brackets hold non-standard residues; d marks the D form. Ends that are not written are not given here. Abu = CC[C@H](N)C(=O)O

Key:
Type in all cases: cell-based
[1] = tested on: human mesenchymal stem cells (hMSC); experiment: Cell proliferation of hMSCs depending on the culture conditions; conditions: for number of MSC: add-on of ATRA (from J5); for effect on cell proliferation (number of MSCs): whatever the conditions / FBS concentration (2% or 10% FBS)
Excerpt: Adult human bone marrow mononuclear cells Ficoll-extracted from two donors were obtained from Lonza. Cells were passaged once a week. The human mesenchymal stem cells (hMSC) were selected by plastic adherence and expanded by plating 50 000 cells/cm^2 in Modified Eagle Medium Alpha (MEMalpha, MacoPharma) supplemented with 10% Fetal Bovine Serum (FBS, PAA Laboratoires) and 0.1% Penicilline/Streptomycine (P/S, Lonza). The culture medium was changed after 3 days and then every day. After 2 to 5 weeks of culture at 37° C. in a humid environment and under 5% CO2, hMSC were harvested by trypsinization. The phenotype was confirmed by FACS analysis (BD Bioscience, BD LSR II) with CD73, CD90 and CD105 (positive), as well as CD34 and CD45 (negative) (Table 1).
(§1) To investigate the neural differentiation capacity of the peptides, 25 cm^2 flasks and 12-wells culture plates were coated with sterile aqueous solutions of either NX210 or NS640 at a concentration of 80 μg/cm^2. Coatings were carried out at 37° C. and 5% CO2 over-night prior to cell plating.
On Day 0 (D0), hMSC were seeded at a concentration of 3,000 cells/cm^2 in pre-coated 25 cm^2 flasks or 12-well culture plates in complete medium and culture was placed at 37° C. in a humid environment and under 5% CO2. After 24h, medium was changed and replaced by different combinations of media containing either: MEMalpha—bFGF 12.5 ng/mL—FBS 2%—P/S 0.1%; MEMalpha—bFGF 12.5 ng/mL—FBS 10%—P/S 0.1%; MEMalpha—FBS 2%—P/S 0.1% (control condition); MEMalpha—FBS 10%—P/S 0.1% (control condition). The cells were placed at 37° C. in a humid environment and under 5% CO2, and medium was changed twice a week. […] thus was changed with: MEMalpha—ATRA […]—FBS 2%—P/S 0.1%; MEMalpha—ATRA 20 μM—FBS 10%—P/S 0.1%; MEMalpha—FBS 2%—P/S 0.1% (control condition); MEMalpha—FBS 10%—P/S 0.1% (control condition). The cells were placed at 37° C. in a humid environment and under 5% CO2. Medium was changed twice a week. On Day 15 (D15), cells were harvested by trypsinization for mRNA extraction or fixed immunocytochemical analysis.

[2] = tested on: human mesenchymal stem cells (hMSC); experiment: Neural differentiation of hMSCs: gene expression by real-time PCR
Experimental: as §1
On Day 0 (D0), hMSC were seeded at a concentration of 3,000 cells/cm^2 in pre-coated 25 cm^2 flasks or 12-well culture plates in complete medium and culture was placed at 37° C. in a humid environment and under 5% CO2. After 24h, medium was changed and replaced by different combinations of media containing either: MEMalpha—bFGF 12.5 ng/mL—FBS 2%—P/S 0.1%; MEMalpha—bFGF 12.5 ng/mL—FBS 10%—P/S 0.1%; MEMalpha—FBS 2%—P/S 0.1% (control condition); MEMalpha—FBS 10%—P/S 0.1% (control condition). The cells were placed at 37° C. in a humid environment and under 5% CO2, and medium was changed twice a week. On Day 8, medium was replaced by medium containing ATRA in the place of bFGF and thus was changed with: MEMalpha—ATRA […]—FBS 2%—P/S 0.1%; MEMalpha—ATRA 20 μM—FBS 10%—P/S 0.1%; MEMalpha—FBS 2%—P/S 0.1% (control condition); MEMalpha—FBS 10%—P/S 0.1% (control condition). The cells were placed at 37° C. in a humid environment and under 5% CO2. Medium was changed twice a week. […]
Total RNA was extracted using RNAeasy total purification kit following instructions of the manufacturer (Qiagen). cDNA were generated using a High-Capacity cDNA Reverse Transcription kit (Applied Biosystems) as described by the manufacturer.
The expression levels of genes (GFAP, Musashi 1, Nestin, Beta3-Tubuline, MAP-2 and GAPDH) were analyzed by real-time PCR using TaqMan gene Expression Master Mix (Applied Biosystems) on the Applied Biosystems 7900 Real time PCR system (Life technologies). Samples were analyzed in triplicates. Data were normalized using the GAPDH gene as an internal control and relative quantification (RQ) of the genes in a sample was determined according to the equation 2^−Δct.

[3] = tested on: human mesenchymal stem cells (hMSC); experiment: Neural differentiation of hMSCs: immunocytochemical analysis (Nestin, MAP-2); conditions: bFGF; for MAP-2 marker expression (immunocytochemistry staining) / Nestine marker expression (immunocytochemistry staining): 2% FBS, with or without peptide coating (FIG. 8); for Nestine expression (staining intensity): with or without peptide coating, compared to the control condition (FIG. 8)
Experimental: as §1
On Day 0 (D0), hMSC were seeded at a concentration of 3,000 cells/cm^2 in pre-coated 25 cm^2 flasks or 12-well culture plates in complete medium and culture was placed at 37° C. in a humid environment and under 5% CO2. After 24h, medium was changed and replaced by different combinations of media containing either: MEMalpha—bFGF 12.5 ng/mL—FBS 2%—P/S 0.1%; MEMalpha—bFGF 12.5 ng/mL—FBS 10%—P/S 0.1%; MEMalpha—FBS 2%—P/S 0.1% (control condition); MEMalpha—FBS 10%—P/S 0.1% (control condition). The cells were placed at 37° C. in a humid environment and under 5% CO2, and medium was changed twice a week. On Day 8, medium was replaced by medium containing ATRA in the place of bFGF and thus was changed with: MEMalpha—ATRA […]—FBS 2%—P/S 0.1%; MEMalpha—ATRA 20 μM—FBS 10%—P/S 0.1%; MEMalpha—FBS 2%—P/S 0.1% (control condition); MEMalpha—FBS 10%—P/S 0.1% (control condition). The cells were placed at 37° C. in a humid environment and under 5% CO2. Medium was changed twice a week. On Day 15 (D15), cells were harvested by trypsinization for mRNA extraction or fixed immunocytochemical analysis.
Assessment of differentiation was performed by gene expression after extraction of mRNA at various time point (DO, D1, D8 and D15), and immunocytochemical analysis performed at the end of the culture period (D15).
Immunocytochemical analyses were carried out on cells fixed in 4% paraformaldehyde and using standard protocols. After blocking with Triton 1×0.1%/BSA 5% during 30 min, cells were incubated with antibodies directed against Nestin (Millipore) or MAP-2 (Sigma) overnight at +4° C. After washing, appropriate FITC or Cyandidine-5 labelled secondary antibody are added. Nuclei were counterstained with Hoescht 33258 (Sigma). Obervations were performed using Leica TCS LSI system.

[4] = patient no 1, day 5, bFGF 10% without ATRA (FIG. 6)
[5] = patient no 1, bFGF 10% without ATRA (FIG. 6)
[6] = patient no 1, bFGF 10% without ATRA, with respect to J0 (FIG. 6)
[7] = patient no 2, bFGF 10% without ATRA (FIG. 7)
[8] = patient no 2, bFGF 10% without ATRA, with respect to J0 (FIG. 7)

In the case of CC1=C(/C=C/C(C)=C/C=C/C(C)=C/C(=O)O)C(C)(C)CCC1 [ATRA, reference compound], the “number of MSC” value ([1]; 2% FBS) was “small difference” and the “number of MSC” value ([1]; 10% FBS) was “decrease”.

For “W-S-G-W-S-S-Abu-S-R-S-Nm (WSGWSS[Abu]SRS-NH2; N-terminus assumed; SMILES CC[C@H](NC(=O)[C@H](CO)NC(=O)[C@H](CO)NC(=O)[C@H](Cc1c[nH]c2ccccc12)NC(=O)CNC(=O)[C@H](CO)NC(=O)[C@@H](N)Cc1c[nH]c2ccccc12)C(=O)N[C@@H](CO)C(=O)N[C@@H](CCCNC(=N)N)C(=O)N[C@@H](CO)C(N)=O) [NS640]”, the “effect of peptide coating on the increase in Nestin, βIII-Tubulin and MAP-2 gene expression” value ([2]; bFGF then ATRA, 2% FBS, peptide coating 80 μg/cm2) was “does not modify this increase”, the MAP-2 expression ([2]; bFGF then ATRA, 10% FBS, peptide coating, vs ×0.75 without peptide (FIG. 5)) was 1.46 × and the Nestin expression ([2]; bFGF then ATRA, 10% FBS, peptide coating, vs ×1.2 without peptide (FIG. 5)) was 1.5 ×. For the same compound, the Nestin expression [2, 4] was 2 ×, the βIII-Tubuline expression ([2]; patient no 2, after 5 days of culture, with bFGF (FIG. 7)) was “maximized” and the “MAP-2 marker expression (immunocytochemistry staining)” value [3] was “stronger staining”. The “Nestine marker expression (immunocytochemistry staining)” value [3] was “stronger staining”, the MAP-2 protein presence ([3]; 10% FBS, peptide coating (FIG. 8)) was “makes possible to observe MAP-2 protein presence” and the “Nestine expression (staining intensity)” value ([3]; 10% FBS) was “maximized”. For the same compound, the “effect on cell proliferation (number of MSCs)” value [1] was “no effect”.

With “bFGF: growth factor added to the hMSC culture medium at 12.5 ng/mL” the “Induction of gene expression: MAP-2 P2” value ([2]; 2% FBS, Patient no2) was 3, the Musashi-1 expression [2, 5] was “decrease” and the Nestin expression [2, 5] was “decrease”. For the same compound, the “expression of MAP-2” value [2, 6] was 2.3 ×, the “expression of βIII Tubulin” value [2, 6] was 9.3 × and the Nestin expression [2, 4] was 0.6 ×. The MAP-2 expression ([2]; patient no 2, D5, with bFGF (FIG. 7)) was “decreased”, the Musashi-1 expression [2, 7] was “decrease” and the Nestin expression [2, 7] was “decrease”. The Nestin expression ([2]; patient no 2, bFGF 10% without ATRA, with or without coating (FIG. 7)) was 0.6 ×, the “expression of MAP-2” value [2, 8] was 2.3 × and the “expression of βIII Tubulin” value [2, 8] was 9.3 ×. For the same compound, the “MAP-2 marker expression (immunocytochemistry staining)” value [3] was “increases the expression”, the “Nestine marker expression (immunocytochemistry staining)” value [3] was “increases the expression” and the “Nestine expression (staining intensity)” value ([3]; 10% FBS) was “increases Nestine expression”. The “effect on cell proliferation (number of MSCs)” value [1] was “positive effect”.
